Measurements published in patent publication US6855730B2, “3-methylidenyl-2-indolinone modulators of protein kinase” (Sugen, Inc., priority 1998, dated 2005).
Counter-ions that a name gives are not always drawn.

Experiments:
src protein kinase = target: T1, src protein kinase (Gallus gallus, UniProt P00523); test: Biochemical SRC assay (phosphorylation of biotinylated peptide); details: read-out: bio src IC50
T1 construct: host or cells: Schizosaccharomyces pombe SP200

[1] = target: Myc-GyrB-FGFR fusion protein (Homo sapiens, UniProt P11362); test: Biochemical FGFR assay (ELISA); details: read-out: bio fgfR1 IC50
flkGST = target: T2, flkGST (Homo sapiens, UniProt P35968); test: bio flkGST assay; assay type: biochemical
T2 construct: GST

[2] = target: T3, chimeric receptor having the extra-cellular domain of EGF-R and the intra-cellular domain of Her2 (Homo sapiens, UniProt P04626); test: EGF-induced Her2-driven BrdU incorporation; assay type: cell-based; details: read-out: BrdU HER 2 driven IC50
T3 construct: fused on or other part: the same chimera
Protocol: The cellular/catalytic assays described herein are performed in an ELISA format. The general procedure is as follows: a compound is introduced to cells expressing the test kinase, either naturally or recombinantly, for a selected period of time after which, if the test kinase is a receptor, a ligand known to activate the receptor is added. The cells are lysed and the lysate is transferred to the wells of an ELISA plate previously coated with a specific antibody recognizing the substrate of the enzymatic phosphorylation reaction. Non-substrate components of the cell lysate are washed away and the amount of phosphorylation on the substrate is detected with an antibody specifically recognizing phosphotyrosine compared with control cells that were not contacted with a test compound. The cellular/biologic assays described herein measure the amount of DNA made in response to activation of a test kinase, which is a general measure of a proliferative response. The general procedure for this assay is as follows: a compound is introduced to cells expressing the test kinase, either naturally or recombinantly, for a selected period of time after which, if the test kinase is a receptor, a ligand known to activate the receptor is added. After incubation at least overnight, a DNA labeling reagent such as Bromodeoxyuridine (BrdU) or 3H-thymidine is added. The amount of labeled DNA is detected with either an anti-BrdU antibody or by measuring radioactivity and is compared to control cells not contacted with a test compound.
EGF-Induced Her2-Driven BrdU Incorporation
Protocol • (1) Cells-are seeded at 8000 cells/well in DMEM, 10% CS, 2mM Gln in a 96-well plate. Cells are incubated overnight at 37° C. in 5% CO2. • (2) After 24 hours, the cells are washed with PBS, and then are serum starved in serum free medium (0% CS DMEM with 0.1% BSA) for 24 hours. • (3) On day 3, ligand (EGF=2 nM, prepared in DMEM with 0.1% BSA) and test compounds are added to the cells simultaneously. The negative control wells receive serum free DMEM with 0.1% BSA only, the positive control cells receive the ligand (EGF) but no test compound. Test compounds are prepared in serum free DMEM with ligand in a 96 well plate, and serially diluted for 7 test concentrations. • (4) After 20 hours of ligand activation, diluted BrdU labeling reagent (1:100 in DMEM, 0.1% BSA) is added and the cells are incubated with BrdU (final concentration=10 μM) for 1.5 hours. • (5) After incubation with labeling reagent, the medium is removed by decanting and tapping the inverted plate on a paper towel. FixDenat solution is added (50 μl/well) and the plates are incubated at room temperature for 45 minutes on a plate shaker. • (6) The FixDenat solution is thoroughly removed by decanting and tapping the inverted plate on a paper towel. Milk is added (5% dehydrated milk in PBS, 200 μ/well) as a blocking solution and the plate is incubated for 30 minutes at room temperature on a plate shaker. • (7) The blocking solution is removed by decanting and the wells are washed once with PBS. Anti-BrdU-POD solution (1:100 dilution in PBS, 1% BSA) is added (100 μl/well) and the plate is incubated for 90 minutes at room temperature on a plate shaker. • (8) The antibody conjugate is thoroughly removed by decanting and rinsing the wells 5 times with PBS, and the plate is dried by inverting and tapping on a paper towel. • (9) TMB substrate solution is added (100 μl/well) and incubated for 20 minutes at room temperature on a plate shaker until color development is sufficient for photometric detection. • (10) The absorbance of the samples are measured at 410 nm (in “dual wavelength” mode with a filter reading at 490 nm, as a reference wavelength) on a Dynatech ELISA plate reader.

T3 sequence (P04626 676-1255 limits assumed, change not shown): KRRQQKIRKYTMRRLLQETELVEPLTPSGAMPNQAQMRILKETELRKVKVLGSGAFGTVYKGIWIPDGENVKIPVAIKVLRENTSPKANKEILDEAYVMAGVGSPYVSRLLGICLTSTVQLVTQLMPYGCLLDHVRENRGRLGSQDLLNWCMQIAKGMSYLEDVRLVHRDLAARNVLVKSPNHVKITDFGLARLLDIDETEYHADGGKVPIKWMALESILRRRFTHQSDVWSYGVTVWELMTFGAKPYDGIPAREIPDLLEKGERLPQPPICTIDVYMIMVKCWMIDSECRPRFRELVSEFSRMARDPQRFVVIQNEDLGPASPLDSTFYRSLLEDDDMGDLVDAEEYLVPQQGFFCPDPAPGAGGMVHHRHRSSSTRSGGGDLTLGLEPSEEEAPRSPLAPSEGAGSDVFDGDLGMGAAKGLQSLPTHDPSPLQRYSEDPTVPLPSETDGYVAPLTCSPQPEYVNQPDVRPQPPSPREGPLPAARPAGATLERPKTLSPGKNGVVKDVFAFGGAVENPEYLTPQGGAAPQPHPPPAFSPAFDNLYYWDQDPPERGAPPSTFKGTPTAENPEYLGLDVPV
Sequence of Myc-GyrB-FGFR fusion protein (P11362 478-767 limits assumed): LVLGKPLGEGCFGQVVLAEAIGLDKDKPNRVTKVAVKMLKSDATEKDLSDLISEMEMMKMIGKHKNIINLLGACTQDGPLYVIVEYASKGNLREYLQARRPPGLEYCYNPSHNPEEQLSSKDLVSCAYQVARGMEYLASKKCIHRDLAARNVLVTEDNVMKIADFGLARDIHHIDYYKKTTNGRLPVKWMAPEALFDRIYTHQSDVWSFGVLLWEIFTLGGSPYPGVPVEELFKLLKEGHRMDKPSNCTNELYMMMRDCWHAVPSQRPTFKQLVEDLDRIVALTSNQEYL
T2 sequence (P35968 786-1356 limits assumed): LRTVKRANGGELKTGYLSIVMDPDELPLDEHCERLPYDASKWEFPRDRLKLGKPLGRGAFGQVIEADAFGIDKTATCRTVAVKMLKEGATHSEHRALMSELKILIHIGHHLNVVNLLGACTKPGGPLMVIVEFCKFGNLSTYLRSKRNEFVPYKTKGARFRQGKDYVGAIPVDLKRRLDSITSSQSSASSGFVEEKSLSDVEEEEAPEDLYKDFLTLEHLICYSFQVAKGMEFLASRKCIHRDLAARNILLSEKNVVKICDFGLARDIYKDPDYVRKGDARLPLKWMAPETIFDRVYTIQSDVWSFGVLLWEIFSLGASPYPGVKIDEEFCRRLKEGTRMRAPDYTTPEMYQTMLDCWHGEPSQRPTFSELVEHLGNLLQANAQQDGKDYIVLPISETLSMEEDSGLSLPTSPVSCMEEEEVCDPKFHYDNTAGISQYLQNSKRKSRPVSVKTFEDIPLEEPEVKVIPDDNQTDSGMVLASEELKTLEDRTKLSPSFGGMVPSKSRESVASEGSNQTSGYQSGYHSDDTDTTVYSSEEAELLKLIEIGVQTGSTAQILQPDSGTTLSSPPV

Row | Structure (SMILES) | IC50 [2] | also measured
1 | CNS(=O)(=O)c1ccc2c(c1)C(=Cc1[nH]c3ccccc3c1C)C(=O)N2 (racemic) [Example 154, 3-(3-Methyl-1H-indol-2-ylmethylene)-2-oxo-2,3-dihydro-1H-indole-5-sulfonic acid methylamide] |  | IC50 (src protein kinase): > 100 µM; IC50 [1]: > 20 µM
2 | COc1ccc(/C=C2/C(=O)Nc3ncccc32)cc1C1CCCC1 [Example 47, 3-(3-Cyclopentyl-4-methoxybenzylidene)-1,3-dihydropyrrolo[2,3-b]pyridin-2-one] | > 50 µM | 
3 | CC(=O)Nc1ccc2c(c1)NC(=O)/C2=C/c1ccc(OCCN2CCOCC2)c(-c2ccsc2)c1 [Example 50, N-{3-[4-(2-Morpholin-4-ylethoxy)-3-thiophen-3-ylbenzylidene]-2-oxo-2,3-dihydro-1H-indol-6-yl}-acetamide] | 31.1 µM | 
4 | COc1ccc(/C=C2/C(=O)Nc3ccc(Cl)cc32)cc1-c1cccnc1 [Example 60] | 40 µM | 
5 | COc1cccc(-c2cc(OC)c(OC)cc2/C=C2/C(=O)Nc3ccc(Cl)cc32)c1 [Example 61, 5-Chloro-3-(4,5-3′-Trimethoxybiphenyl-2-ylmethylene)-1,3-dihydroindol-2-one] | > 50 µM | 
6 | COc1cc(/C=C2/C(=O)Nc3ccccc32)c(-c2ccc3ccccc3c2)cc1OC [Example 62, 3-(4,5-Dimethoxy-2-naphthalen-2-ylbenzylidene)-1,3-dihydroindol-2-one] | 28.8 µM | 
7 | Cc1c(/C=C2\C(=O)Nc3ccc(C(=O)O)cc32)[nH]c2ccccc12 [Example 156, 3-(3-Methyl-1H-indol-2-ylmethylene)-2-oxo-2,3-dihydro-1H-indole-5-carboxylic acid (piperidine salt)] |  | IC50 (src protein kinase): 0.15 µM; IC50 [1]: 3.6 µM

Further molecules by falling IC50 [2], results first:

Row | IC50 [2] | Structure (SMILES) | also measured
8 | 14.4 µM | COc1ccc(/C=C2/C(=O)Nc3ccc(Cl)cc32)cc1-c1cccs1 [Example 59, 5-chloro-3-(4-Methoxy-3-thiophen-2-ylbenzylidene)-1,3-dihydroindol-2-one] | 
9 | 13.5 µM | CCOc1cccc(-c2cc(OC)c(OC)cc2/C=C2/C(=O)Nc3ccccc32)c1 [Example 58, 3-(3′-Ethoxy-4,5-dimethoxybiphenyl-2-ylmethylene)-1,3-dihydroindol-2-one] | 
10 | 9.6 µM | CC(C)c1cc(/C=C2/C(=O)Nc3ccc(Br)cc32)cc(C(C)C)c1OCCN1CCOCC1 [Example 57, 5-Bromo-3-[3,5-diisopropyl-4-(2-morpholin-4-ylethoxy)benzylidene]-1,3-dihydroindol-2-one] | 
11 | 9.3 µM | COc1ccc(/C=C2/C(=O)Nc3ccc(F)cc32)cc1C1CCCC1 [Example 11, 3-(3-Cyclopentyl-4-methoxybenzylidene)-5-fluoro-1,3-dihydroindol-2-one] | IC50 (flkGST): 24.1 µM
12 | 9.1 µM | COc1cc(C=C2C(=O)Nc3ccccc32)c(-c2ccccc2OC)cc1OC [Example 49, 3-(4,5,2′-Trimethoxybiphenyl-2-ylmethylene)-1,3-dihydroindol-2-one] | 
